Test results reported in ChEMBL document CHEMBL1137106, “Piperazinebenzylamines as potent and selective antagonists of the human melanocortin-4 receptor” (Bioorg Med Chem Lett, 2004).
pEC50, pIC50, pKi: −log10 of the molar value.

Tests used:
[1] = system: Cell line; experiment: Percentage of alpha-MSH stimulated cAMP level at 10 uM; assay type: functional, Homo sapiens
[2] = molecular target: T1, Melanocortin receptor 4 (Homo sapiens, UniProt P32245); experiment: Binding affinity towards human melanocortin 4 receptor expressed in HEK 293 cells was determined by using [125I]NDP-MSH as radioligand; assay type: cell-based, HEK293
T1 sequence (P32245 whole entry): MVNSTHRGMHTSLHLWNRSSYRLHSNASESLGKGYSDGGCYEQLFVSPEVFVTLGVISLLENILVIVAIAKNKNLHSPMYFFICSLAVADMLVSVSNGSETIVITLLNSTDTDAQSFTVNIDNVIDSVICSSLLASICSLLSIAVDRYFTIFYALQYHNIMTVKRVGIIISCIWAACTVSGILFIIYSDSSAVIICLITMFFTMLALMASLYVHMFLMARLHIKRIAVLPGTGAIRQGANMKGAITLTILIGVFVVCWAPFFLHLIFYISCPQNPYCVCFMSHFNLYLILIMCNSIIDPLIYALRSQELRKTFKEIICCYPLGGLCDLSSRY

[3] = molecular target: T1, Melanocortin receptor 4; experiment: Tested for inhibition of binding to MC4 receptor
[4] = system: Cell line; experiment: Effective concentration required for alpha-MSH stimulated cAMP production at 10 uM; assay type: functional, cell-based; conditions: Homo sapiens
[5] = molecular target: T2, Melanocyte-stimulating hormone receptor (Homo sapiens, UniProt Q01726); experiment: Binding affinity towards human melanocortin 1 receptor expressed in HEK 293 cells was determined by using [125I]NDP-MSH as radioligand; assay type: cell-based, HEK293
Target sequence in this assay (Q01726 whole entry): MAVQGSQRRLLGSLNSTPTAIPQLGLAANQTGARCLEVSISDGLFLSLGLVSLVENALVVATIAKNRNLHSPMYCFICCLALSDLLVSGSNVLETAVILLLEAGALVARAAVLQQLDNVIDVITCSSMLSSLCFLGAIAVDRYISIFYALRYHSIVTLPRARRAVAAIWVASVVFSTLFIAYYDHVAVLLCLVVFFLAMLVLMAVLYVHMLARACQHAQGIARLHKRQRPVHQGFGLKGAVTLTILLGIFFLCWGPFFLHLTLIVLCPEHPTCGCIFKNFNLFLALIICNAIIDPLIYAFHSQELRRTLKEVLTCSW

[6] = molecular target: Melanocortin receptor 5 (Homo sapiens, UniProt P33032); experiment: Binding affinity towards human melanocortin 5 receptor expressed in HEK 293 cells was determined by using [125I]NDP-MSH as radioligand; assay type: cell-based, HEK293
Sequence of Melanocortin receptor 5 (P33032 whole entry): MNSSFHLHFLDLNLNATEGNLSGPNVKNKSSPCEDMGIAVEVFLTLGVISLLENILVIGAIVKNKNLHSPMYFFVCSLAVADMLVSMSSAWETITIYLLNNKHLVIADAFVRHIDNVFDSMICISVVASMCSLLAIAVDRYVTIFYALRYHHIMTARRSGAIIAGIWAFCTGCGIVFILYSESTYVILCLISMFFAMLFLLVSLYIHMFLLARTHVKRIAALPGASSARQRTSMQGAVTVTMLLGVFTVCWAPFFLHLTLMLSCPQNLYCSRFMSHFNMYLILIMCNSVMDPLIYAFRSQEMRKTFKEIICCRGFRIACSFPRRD

[7] = molecular target: Melanocortin receptor 3 (Homo sapiens, UniProt P41968); experiment: Binding affinity towards human melanocortin 3 receptor expressed in HEK 293 cells was determined by using [125I]NDP-MSH as radioligand; assay type: cell-based, HEK293
Sequence of Melanocortin receptor 3 (P41968 whole entry): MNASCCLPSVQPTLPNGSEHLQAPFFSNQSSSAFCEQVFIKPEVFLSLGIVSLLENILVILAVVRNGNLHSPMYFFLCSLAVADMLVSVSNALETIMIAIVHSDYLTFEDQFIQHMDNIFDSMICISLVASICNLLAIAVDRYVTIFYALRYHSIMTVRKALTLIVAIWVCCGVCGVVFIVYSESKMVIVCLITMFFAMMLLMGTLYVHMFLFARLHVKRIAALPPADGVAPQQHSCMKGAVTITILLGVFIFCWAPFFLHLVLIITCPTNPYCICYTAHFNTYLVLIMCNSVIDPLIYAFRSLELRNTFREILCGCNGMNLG

[8] = system: Cell line; experiment: Concentration required for inhibition of alpha-MSH stimulated cAMP production by 50%; assay type: functional, cell-based; conditions: Homo sapiens
[9] = molecular target: T2, Melanocyte-stimulating hormone receptor; experiment: Percent inhibition of [125I]NDP-MSH binding to human melanocortin 1 receptor expressed in HEK 293 cells at 10 uM; assay type: cell-based; conditions: HEK293
Target sequence in this assay (Q01726 whole entry, looked up): as the sequence (Q01726 whole entry) above

[10] = system: Cell line; experiment: Effective concentration required for alpha-MSH stimulated cAMP production; assay type: functional, cell-based; conditions: Homo sapiens
[11] = Tested for inhibition of NDP-MSH binding; assay type: functional

| Compound | IA [1] | pKi [2] | pEC50 [4] | further results |
| --- | --- | --- | --- | --- |
| NC(CC(=O)N1CCN(c2ccccc2CNCCc2cccs2)CC1)c1ccc(Cl)cc1 (configuration not stated) | <45% | 5.27 | – | – |
| COc1ccc(Br)cc1CCc1c(Cl)cccc1-c1nc(C)c[nH]1 | – | – | – | pKi [3]: 6.74 |
| COc1ccc2ccccc2c1CCCCN1CCN(CC(c2ccc(F)cc2)N2CCN(C)CC2)CC1 (configuration not stated) | – | – | – | pKi [3]: 8.10 |
| O=C(CC1CCCN1)N[C@H](Cc1ccc(Cl)cc1)C(=O)N1CCN(c2ccccc2CNCCc2cccs2)CC1 (some centres not stated) | 57% | 7.40 | 5.74 | – |
| NCCCC(=O)N[C@H](Cc1ccc(Cl)cc1)C(=O)N1CCN(c2ccccc2CNCCc2cccs2)CC1 | 15% | 7.85 | – | pKi [5]: 5.92; pKi [6]: 6.00; pKi [7]: 5.85; pIC50 [8]: 7.18 |
| CC(N[C@@H]1CCCC[C@H]1N)c1ccccc1N1CCN(C(=O)[C@@H](Cc2ccc(Cl)cc2)NC(=O)CCN)CC1 (some centres not stated) | 64% | 6.82 | 6.23 | – |
| O=C(N[C@H](Cc1ccc(Cl)cc1)C(=O)N1CCN(c2ccccc2CNCCc2cccs2)CC1)[C@H]1Cc2ccccc2CN1 | 100% | – | 6.49 | – |
| NC(C(=O)N1CCN(c2ccccc2CNCCc2cccs2)CC1)c1ccc(Cl)cc1 (configuration not stated) | <45% | 5.74 | – | – |
| NC(Cc1ccc(Cl)cc1)C(=O)N1CCN(c2ccccc2CNCCc2cccs2)CC1 (configuration not stated) | <45% | 5.41 | – | – |
| NCCC(=O)OC(Cc1ccc(Cl)cc1)C(=O)N1CCN(c2ccccc2CNCCc2cccs2)CC1 (configuration not stated) | <45% | 6.54 | – | – |
| O=C([C@@H](Cc1ccc(Cl)cc1)NS(=O)(=O)CC(F)(F)F)N1CCN(c2ccccc2CNCCc2cccs2)CC1 | <45% | 6.39 | – | – |
| NC(Cc1ccccc1Cl)C(=O)N1CCN(c2ccccc2CNCCc2cccs2)CC1 (configuration not stated) | <45% | 6.00 | – | – |
| NCCC(=O)N[C@H](Cc1ccc(Cl)cc1)C(=O)N1CCN(c2ccccc2CNCCc2cccs2)CC1 | 14% | 7.68 | – | pKi [5]: 5.89; pKi [6]: 6.00; pKi [7]: 6.00; pIC50 [8]: 7.05 |
| CC(NCc1ccco1)c1ccccc1N1CCN(C(=O)[C@@H](Cc2ccc(Cl)cc2)NC(=O)CCN)CC1 (some centres not stated) | 99% | 6.85 | 5.73 | – |
| O=C(N[C@H](Cc1ccc(Cl)cc1)C(=O)N1CCN(c2ccccc2CNCCc2cccs2)CC1)C1CCCN1 (some centres not stated) | 56% | 7.30 | 5.72 | – |
| NCC(=O)N[C@H](Cc1ccc(Cl)cc1)C(=O)N1CCN(c2ccccc2CNCCc2cccs2)CC1 | 77% | 7.36 | 6.24 | pKi [6]: 6.00; pKi [7]: 5.72; inhibition [9]: 50% |
| CC(NCCNc1cccc2ccccc12)c1ccccc1N1CCN(C(=O)[C@@H](Cc2ccc(Cl)cc2)NC(=O)CCN)CC1 (some centres not stated) | 22% | 6.54 | – | – |
| COCC(=O)N[C@H](Cc1ccc(Cl)cc1)C(=O)N1CCN(c2ccccc2CNCCc2cccs2)CC1 | 16% | 7.15 | – | – |
| O=C(C(O)c1ccc(Cl)cc1)N1CCN(c2ccccc2CNCCc2cccs2)CC1 (configuration not stated) | <45% | < 5.00 | – | – |
| CC(NCc1ccccc1N)c1ccccc1N1CCN(C(=O)[C@@H](Cc2ccc(Cl)cc2)NC(=O)CCN)CC1 (some centres not stated) | 100% | 6.92 | 6.44 | – |
| O=C(N[C@H](Cc1ccc(Cl)cc1)C(=O)N1CCN(c2ccccc2CNCCc2cccs2)CC1)C1CCCNC1 (some centres not stated) | 12% | 7.82 | – | pKi [5]: 5.64; pKi [6]: 6.14; pKi [7]: 5.85; pIC50 [8]: 7.44 |
| N[C@H](Cc1ccc(Cl)cc1)C(=O)N1CCN(c2ccccc2CNCCc2cccs2)CC1 | 85% | 6.22 | 5.06 | – |
| CC(C)CC(N)C(=O)N[C@H](Cc1ccc(Cl)cc1)C(=O)N1CCN(c2ccccc2CNCCc2cccs2)CC1 (some centres not stated) | 45% | 7.52 | 5.59 | – |

| Compound | IA [1] | pKi [2] | pEC50 [4] | further results |
| --- | --- | --- | --- | --- |
| NCC(Cc1ccc(Cl)cc1)C(=O)N1CCN(c2ccccc2CNCCc2cccs2)CC1 (configuration not stated) | <45% | 5.19 | – | – |
| CCC(NCCc1cccs1)c1ccccc1N1CCN(C(=O)[C@@H](Cc2ccc(Cl)cc2)NC(=O)CCN)CC1 (some centres not stated) | 29% | 6.85 | – | – |
| O=C(Cc1ccc(Cl)cc1)N1CCN(c2ccccc2CNCCc2cccs2)CC1 | <45% | < 5.00 | – | – |
| CC(c1ccccc1N1CCN(C(=O)[C@@H](Cc2ccc(Cl)cc2)NC(=O)CCN)CC1)N1CCN(C)CC1 (some centres not stated) | 59% | 7.07 | 6.33 | – |
| CN(CCc1cccs1)Cc1ccccc1N1CCN(C(=O)[C@@H](Cc2ccc(Cl)cc2)NC(=O)CCN)CC1 | 32% | 6.66 | – | – |
| O=C(N[C@H](Cc1ccc(Cl)cc1)C(=O)N1CCN(c2ccccc2CNCCc2cccs2)CC1)C1CCN1 (some centres not stated) | 47% | 7.32 | 5.79 | – |
| COc1ccc(Br)cc1CCc1c(F)cccc1-c1ncc[nH]1 | – | – | – | pKi [3]: 6.80 |
| CC(C)(C(=O)N1CCN(c2ccccc2CNCCc2cccs2)CC1)c1ccc(Cl)cc1 | <45% | 5.42 | – | – |
| CC(Nc1ccccc1N)c1ccccc1N1CCN(C(=O)[C@@H](Cc2ccc(Cl)cc2)NC(=O)CCN)CC1 (some centres not stated) | 56% | 6.33 | 5.57 | – |
| O=C(N[C@H](Cc1ccc(Cl)cc1)C(=O)N1CCN(c2ccccc2Cn2cncn2)CC1)[C@H]1Cc2ccccc2CN1 | – | – | – | pEC50 [10]: 7.10 |
| CC(NCCN1CCCCC1)c1ccccc1N1CCN(C(=O)[C@@H](Cc2ccc(Cl)cc2)NC(=O)CCN)CC1 (some centres not stated) | 41% | 6.68 | – | – |
| O=C(CCc1ccc(Cl)cc1)N1CCN(c2ccccc2CNCCc2cccs2)CC1 | <45% | 6.00 | – | – |
| CN(C)CC(=O)N[C@H](Cc1ccc(Cl)cc1)C(=O)N1CCN(c2ccccc2CNCCc2cccs2)CC1 | 45% | 7.42 | 5.85 | – |
| NC1(C(=O)N[C@H](Cc2ccc(Cl)cc2)C(=O)N2CCN(c3ccccc3CNCCc3cccs3)CC2)CC1 | 12% | 7.34 | – | – |
| O=C(N[C@H](Cc1ccc(Cl)cc1)C(=O)N1CCN(c2ccccc2CNCCc2cccs2)CC1)C1CCCCN1 (some centres not stated) | 60% | 7.12 | 5.96 | – |
| O=C(N[C@H](Cc1ccc(Cl)cc1)C(=O)N1CCN(c2ccccc2CNCCc2cccs2)CC1)c1cccnc1 | 5% | 7.39 | – | pKi [6]: 6.14; pKi [7]: 5.74; pIC50 [8]: 6.06; inhibition [9]: 23% |
| O=C(N[C@H](Cc1ccc(Cl)cc1)C(=O)N1CCN(c2ccccc2CNCCc2cccs2)CC1)C1CCNCC1 | 39% | 7.59 | – | – |
| CC(CN1CCN(CC(c2ccc(F)cc2)N2CCN(C)CC2)CC1)C(=O)c1ccccc1 (configuration not stated) | – | – | – | pIC50 [11]: 6.66 |
| CC(NCCc1cccs1)c1ccccc1N1CCN(C(=O)[C@@H](Cc2ccc(Cl)cc2)NC(=O)CCN)CC1 (some centres not stated) | 32% | 6.96 | – | – |
| CC(C)(N)C(=O)N[C@H](Cc1ccc(Cl)cc1)C(=O)N1CCN(c2ccccc2CNCCc2cccs2)CC1 | 80% | 7.18 | 5.82 | – |
| CC(c1ccccc1N1CCN(C(=O)[C@@H](Cc2ccc(Cl)cc2)NC(=O)CCN)CC1)N1CCN(c2ccccc2)CC1 (some centres not stated) | 35% | 6.37 | – | – |
| CC(NC1CCCNC1)c1ccccc1N1CCN(C(=O)[C@@H](Cc2ccc(Cl)cc2)NC(=O)[C@H]2Cc3ccccc3CN2)CC1 (some centres not stated) | – | – | – | pEC50 [10]: 8.42 |
